1 compound from PMC10184157 (ACS Medicinal Chemistry Letters, 2023) can be followed below.

For the series, the system named is athymic nude mice doubly xenografted with PC3 cells and 22Rv1 cells. Description: Quantitative PET imaging in doubly xenografted mice. The series is classed as in vivo. To be noted: PET VOI analysis, 50-70 min p.i., retro-orbital injection.

Consider `O=C([O-])CN(CCN(CC(=O)[O-])Cc1cc(CCC(=O)NCCCCCC(=O)NCCCC[C@H](NC(=O)N[C@@H](CCC(=O)O)C(=O)O)C(=O)O)ccc1[O-])Cc1cc(CCC(=O)O)ccc1[O-].[68Ga+3].[OH3+]` [[^68Ga]Ga-PSMA11, HO-Glu-CO-Lys(HBED-CC-Ahx)-OH], for which the “uptake in 22Rv1 tumor” value was 3.22 % ID/g.
